This test relates to T-cell leukemia cell line Jurkat. Kind of test: Cell viability assay (Cell Counting Kit-8), Jurkat. Conditions: Homo sapiens, 72 hours, CCK-8, absorbance 450 nm. It is filed as cell-based. The procedure:
To evaluate the cytotoxicity of the compounds synthesized in the Preparation Examples against cancer cells, a cell viability assay following treatment with the synthesized compounds was performed using a T-cell leukemia cell line Jurkat (KCLB, Cat# 40152), a human acute monocytic leukemia cell line MV-4-11 (ATCC, Cat# CRL-9591), and a human multiple myeloma cell line MM.1S (ATCC, Cat# CRL-2974).
As a culture medium for the cell lines, an RPMI medium containing 10 % heat-inactivated FBS and 1 % penicillin/streptomycin (P/S) antibiotics was used. The culture medium was stored refrigerated and warmed in a 37 °C water bath before use. Each cell line was used for the test after a stabilization period of at least 2 weeks after thawing, and cell culture was performed based on information provided by the cell line manufacturer regarding the thawing and subculture conditions.
The Jurkat, MV-4-11, or MM.1S cell line was seeded in a 96-well plate at a density of 1 × 10^4 cells/well and incubated in a 37 °C CO2 incubator overnight. After incubation, a prepared test compound was applied to each cell line, and the cells were incubated in a 37 °C CO2 incubator for 72 hours. After 72 hours of incubation, a Cell Counting Kit-8 (Dojindo, Cat# CK04-20) reagent was added, and the cells were incubated in a 37 °C CO2 incubator. Then, the absorbance was measured at 450 nm using a SpectraMax M3 Microplate Reader (N=2, duplicate measurement). The evaluation concentrations for evaluating the cytotoxicity of the compounds were 10 points: 100 µM, 20 µM, 4 µM, 0.8 µM, 0.16 µM, 0.032 µM, 0.0064 µM, 0.00128 µM, 0.000256 µM, and 0 µM, and the test was performed at 2 wells/concentration point (n=2). A GI50 was derived using a GraphPad Prism program.
A general note: Tetrazolium assays rely on reduction of a dye to a coloured formazan, in cell work by metabolically active cells.

`O=C1CCC(N2Cc3cc(C(=O)c4ccc(F)cc4)ccc3C2=O)C(=O)N1` (stereo not shown) [Compound 40, 3-(5-(4-fluorobenzoyl)-1-oxoisoindolin-2-yl)piperidine-2,6-dione] displayed a concentration for 50% growth inhibition (GI50) of 0.1 to 1 µM.

The molecule `O=C1CCC(N2Cc3cc(C(=O)c4ccc(C(F)(F)F)cc4)ccc3C2=O)C(=O)N1` (stereo not shown) [Compound 50, 3-(1-oxo-5-(4-(trifluoromethyl)benzoyl)isoindolin-2-yl)piperidine-2,6-dione] displayed a GI50 of 0.1 to 1 µM.

On to `O=C1CCC(N2Cc3cc(C(=O)c4ccc[nH]4)ccc3C2=O)C(=O)N1` (stereo not shown) [Compound 73, 3-(1-oxo-5-(1H-pyrrole-2-carbonyl)isoindolin-2-yl)piperidine-2,6-dione], for which the concentration for 50% growth inhibition (GI50) was not above 0.1 µM.

Molecule `O=C1CCC(N2Cc3cc(C(=O)c4ccc(OCc5ccccc5)cc4)ccc3C2=O)C(=O)N1` (stereo not shown) [Compound 53, 3-(5-(4-(benzyloxy)benzoyl)-1-oxoisoindolin-2-yl)piperidine-2,6-dione] came in with a GI50 of 0.1 to 1 µM.

Consider `O=C1CCC(N2Cc3cc(C(=O)c4cccc5ccccc45)ccc3C2=O)C(=O)N1` (stereo not shown) [Compound 43, 3-(5-(1-naphthoyl)-1-oxoisoindolin-2-yl)piperidine-2,6-dione], for which the GI50 lay in the range of 1 to 10 µM.

Consider `O=C1CCC(N2Cc3cc(C(=O)c4ccc(Cl)cc4)ccc3C2=O)C(=O)N1` (stereo not shown) [Compound 48, 3-(5-(4-chlorobenzoyl)-1-oxoisoindolin-2-yl)piperidine-2,6-dione], for which the GI50 is 0.1 to 1 µM.

`Cc1cccc(C(=O)c2ccc3c(c2)CN(C2CCC(=O)NC2=O)C3=O)c1` (stereo not shown) [Compound 61, 3-(5-(3-methylbenzoyl)-1-oxoisoindolin-2-yl)piperidine-2,6-dione]: the GI50 is not above 0.1 µM.

As to `O=C1CCC(N2Cc3cc(C(=O)c4ccc(N5CCCCC5)cc4)ccc3C2=O)C(=O)N1` (stereo not shown) [Compound 41, 3-(1-oxo-5-(4-(piperidin-1-yl)benzoyl)isoindolin-2-yl)piperidine-2,6-dione], the GI50 lay within 0.1 to 1 µM.

For `Cc1ccc(C(=O)c2ccc3c(c2)CN(C2CCC(=O)NC2=O)C3=O)cc1` (stereo not shown) [Compound 54, 3-(5-(4-methylbenzoyl)-1-oxoisoindolin-2-yl)piperidine-2,6-dione], the GI50 lay in the range of 0.1 to 1 µM.

On to `O=C1CCC(N2Cc3cc(C(=O)c4ccc5ncsc5c4)ccc3C2=O)C(=O)N1` (stereo not shown) [Compound 76, 3-(5-(benzo[d]thiazole-6-carbonyl)-1-oxoisoindolin-2-yl)piperidine-2,6-dione], for which the GI50 is not above 0.1 µM.

In turn, `Nc1ccc(C(=O)c2ccc3c(c2)CN(C2CCC(=O)NC2=O)C3=O)cc1` (stereo not shown) [Compound 64, 3-(5-(4-aminobenzoyl)-1-oxoisoindolin-2-yl)piperidine-2,6-dione] returned a GI50 of 0.1 to 1 µM.

Take `O=C1CCC(N2Cc3cc(C(=O)C4CCCC4)ccc3C2=O)C(=O)N1` (stereo not shown) [Compound 39, 3-(5-(cyclopentanecarbonyl)-1-oxoisoindolin-2-yl)piperidine-2,6-dione]: the GI50 lay in the range of 1 to 10 µM.

With `O=C1CCC(N2Cc3cc(C(=O)c4cn(Cc5ccccc5)c5ccccc45)ccc3C2=O)C(=O)N1` (stereo not shown) [Compound 32, 3-(5-(1-benzyl-1H-indole-3-carbonyl)-1-oxoisoindolin-2-yl)piperidine-2.6-dione], the GI50 lay within 0.1 to 1 µM.

`COc1ccc(C(=O)c2ccc3c(c2)CN(C2CCC(=O)NC2=O)C3=O)cc1` (stereo not shown) [Compound 51, 3-(5-(4-methoxybenzoyl)-1-oxoisoindolin-2-yl)piperidine-2,6-dione]: the GI50 is 0.1 to 1 µM.

Regarding `O=C1CCC(N2Cc3cc(C(=O)c4ccc(OC(F)(F)F)cc4)ccc3C2=O)C(=O)N1` (stereo not shown) [Compound 45, 3-(1-oxo-5-(4-(trifluoromethoxy)benzoyl)isoindolin-2-yl)piperidine-2,6-dione], the GI50 lay within 0.1 to 1 µM.

In the case of `O=C1CCC(N2Cc3cc(C(=O)c4c[nH]c5ccc(Cl)cc45)ccc3C2=O)C(=O)N1` (stereo not shown) [Compound 8, 3-(5-(5-chloro-1H-indole-3-carbonyl)-1-oxoisoindolin-2-yl)piperidine-2,6-dione], the GI50 was not above 0.1 µM.

The term GI50 denotes the concentration giving 50% growth inhibition. Read a high GI50 as less potent growth inhibition.

The values are drawn from patent EP4813977A1, “NOVEL COMPOUND AND USE THEREOF” (Protier Biotech Inc., priority 2023, dated 2025).
